Results: patent US20230218663A1, “COMPOSITIONS AND METHODS FOR TREATING A SARS-COV-2 INFECTION” (priority 2020, published 2023)
Like-named read-outs stand apart in the source and are kept apart here.

Assays:
VeroE6 cells = test: Cell viability assay (CellTiterGlo), VeroE6; assay type: cell-based, African green monkey
Protocol: (§1) The CellTiterGlo® luminescent assay (Promega Corporation, Madison, Wis., USA) was performed to detect the cytotoxicity of the selected compounds as previously described^39. Briefly, VeroE6 cells (4×10^4 cells per well) and Caco2 cells (4×10^4 cells per well) were incubated with different concentrations of the individual compound in 96-well plates for 48 hrs, followed by the addition of the substrate and measurement of luminance 10 min later. Ridaura and Au(PEt3)Cl were dissolved in DMSO, and the final percentage of DMSO was kept at 1% in culture medium.

SARS-CoV-2 PL^pro [1] = molecular target: T1, SARS-CoV-2 PL^pro (Severe acute respiratory syndrome coronavirus 2, UniProt P0DTD1); test: Zinc release assay (FluoZin-3); assay type: binding
Protocol: The release of Zn^2+ from SARS-CoV-2 PL^pro upon bismuth drug exposure was perform by a previously described method with zinc-specific fluorophore FluoZin™-3 (Invitrogen/Life Technologies) (21). Briefly, SARS-CoV-2 PLpro (20 μM) was incubated with 0, 2, 5, 20 mol eq. Bi^3+ (as CBS), for 180 min at room temperature, followed by the addition of FluoZin-3 (1 μM) in a total reaction volume of 100 μL (50 mM Tris-HCl, pH7.4) at room temperature. Fluorescence (λex=494 nm, λem=530 nm) was detected and converted into Zn^2+ concentrations using standard curves prepared from […] under identical condition. The signals of CBS at corresponding concentrations after mixing with FluoZin™-3 were recorded for background subtraction. The assay was performed in triplicate and the results were plotted as the [Zn^2+]/[PL^pro] verse [Bi^3+]/[PL^pro].

SARS-CoV-2 M^pro [2] = molecular target: T2, SARS-CoV-2 M^pro (Severe acute respiratory syndrome coronavirus 2, UniProt P0DTD1); test: Ellman's assay of free cysteine; assay type: binding
Protocol: Amount of free cysteine was assayed spectrophotometrically with DTNB [5,5′-dithiobis-(2-nitrobenzoic acid)]according to a previously described method^(22). Briefly, SARS-CoV-2 M^pro (15 μM) was incubated with 0, 2, 5, 20 mol eq. […] Equal volume of DTNB (2 mM) was added to the reaction mix in a total reaction volume of 100 μL. After the incubation for 90 min, absorption of 412 nm which indicated the release of 5-thiobenzoate anion, was detected and converted into thiol concentrations using standard curves prepared with reduced glutathione (GSH) under identical condition. The assay was performed in triplicate and the results were plotted as the [free cysteine]/[M^pro] verse [Bi^3+]/[M^pro].

SARS-CoV-2 M^pro [3] = molecular target: T2, SARS-CoV-2 M^pro; test: Bi^3+ binding to M^pro (UV-vis kinetics and titration)
SARS-CoV-2 PL^pro [4] = molecular target: T1, SARS-CoV-2 PL^pro; test: Bi^3+ binding to PL^pro (UV-vis kinetics and titration)
[5] = Chemical stability of bismuth drugs at different pH; settings: data not shown; for effect of the thiol-containing drug on hydrolysis of CBS: acidic conditions
SARS-CoV-2 [6] = test: Viral load reduction assay in VeroE6 cells; assay type: cell-based
Protocol: Viral load reduction assay was performed on VeroE6 and Caco2 cells, as described previously with modifications^41. Supernatant samples from the infected cells (0.1 MOI) were harvested at 48 hours post-infection (hpi) for qRT-PCR analysis of virus replication. Briefly, 100 μL of viral supernatant were lyzed with 400 μL of AVL buffer and then extracted for total RNA with the QIAamp viral RNA mini kit (Qiagen, Hilden, Germany). Real-time one-step qRT-PCR was used for quantitation of SARS-CoV-2 viral load using the QuantiNova Probe RT-PCR kit (Qiagen) with a LightCycler 480 Real-Time PCR System (Roche) as previously described^15. Each […] mixture contained 10 μL of 2×QuantiNova Probe RT-PCR Master Mix, 1.2 μL of RNase-free water, 0.2 μL of QuantiNova Probe RT-Mix, 1.6 μL each of 10 μM forward and reverse primer, 0.4 μL of 10 μM probe, and 5 μL of extracted RNA as the template. Reactions were incubated at 45° C. for 10 min for reverse transcription, 95° C. for 5 min for denaturation, followed by 45 cycles of 95° C. for 5 s and 55° C. for 30 s. Signal detection and measurement were taken in each cycle after the annealing step. The cycling profile ended with a cooling step at 40° C. for 30 s. The primers and probe sequences are against the RNA-dependent RNA polymerase/Helicase (RdRP/Hel) gene region of SARS-Cov-2 previously described^42.
Cell culture supernatants were collected at 48 hour-post-infection (hpi) for viral RNA extraction and quantitative reverse transcription-polymerase chain reaction (qRT-PCR) as previously described with modifications(13, 14). The primers and probe sequences were against the RNA-dependent RNA polymerase/Helicase (RdRP/Hel) gene region of SARS-CoV-2: forward primer: 5′-[…]-3′ (SEQ ID NO:6); reverse primer: 5′-[…]-3′(SEQ ID NO:7); specific probe: 5′-[…]-IABkFQ-3′(SEQ ID NO:8). The viral load reduction assay experiments were performed in triplicate and repeated twice for confirmation.

SARS-CoV-2 PL^pro [7] = molecular target: T1, SARS-CoV-2 PL^pro; test: PL^pro activity inhibition assay (FRET); assay type: biochemical
SARS-CoV-2 M^pro [8] = molecular target: T2, SARS-CoV-2 M^pro; test: biochemical; assay type: biochemical
SARS-CoV-2 [9] = assay type: cell-based; settings: 24 h, 1000 µM
SARS-CoV-2 [10] = test: Golden Syrian hamster model, oral treatment (NAC studies); assay type: in vivo
Caco2 cells = test: Cell viability assay (CellTiterGlo), Caco2; assay type: cell-based, human; settings: Caco-2
Protocol: as §1

SARS-CoV-2 [11] = assay type: cell-based; settings: read-out: EC50 VeroE6
SARS-CoV-2 [12] = assay type: cell-based
SARS-CoV-2 [13] = settings: 0.1 MOI, 48 hpi, non-toxic concentrations
pseudo-SARS-CoV-2-Luc = assay type: cell-based
[14] = 48 hrs incubation, concentration based on metal content, read-out: CC50 VeroE6
[15] = 0.1 MOI, 48 hpi, non-toxic concentrations

## CCP(CC)CC.[Au+].[Cl-] [Au(PEt3)Cl, chloro(triethylphosphine)gold(I)]
VeroE6 cells; [14]
  CC50: 13.5 ± 1.8 µM

## [Bi+3] [Bi^3+]
SARS-CoV-2 PL^pro [1]
  Zn^2+ released from PL^pro: ~0.78 eq.
SARS-CoV-2 M^pro [2]
  decrease of free cysteine in M^pro: ~1 eq.
SARS-CoV-2 M^pro [3]; absorption at 340 nm
  molar ratio [Bi3+]/[SARS-CoV-2 Mpro] at plateau: ~1
SARS-CoV-2 M^pro [3]; read-out: estimated dissociation constant (Kd), M^pro
  Kd: 0.6 µM
SARS-CoV-2 PL^pro [4]; absorption at 340 nm
  molar ratio [Bi3+]/[SARS-CoV-2 PL^pro] at plateau: ~3
SARS-CoV-2 PL^pro [4]; read-out: estimated dissociation constant (Kd), PL^pro
  Kd: 1.13 µM

## C[C@H](CS)C(=O)N1CCC[C@H]1C(=O)O [CPL, captopril]
[5]
  effect of the thiol-containing drug on hydrolysis of CBS: prevent hydrolysis of CBS

## N[C@@H](CCC(=O)N[C@@H](CS)C(=O)NCC(=O)O)C(=O)O [GSH, glutathione]
[5]
  effect of the thiol-containing drug on hydrolysis of CBS: prevent hydrolysis of CBS

## CC(=O)N[C@@H](CS)C(=O)O [NAC, N-acetyl cysteine]
SARS-CoV-2 [6]; up to 2000 μM
  anti-SARS-CoV-2 activity in Vero E6 culture supernatant: negligible anti-SARS-CoV-2 activity
SARS-CoV-2 PL^pro [7]
  IC50: > 150 µM
  inhibition of PL^pro at comparable concentrations: negligible inhibitory
SARS-CoV-2 M^pro [8]
  IC50: > 450 µM
  inhibition of M^pro at comparable concentrations: negligible inhibitory
SARS-CoV-2 [9]
  viral NP antigen-positive cells: 59.75%
SARS-CoV-2 [10]; H&E
  lung pathology: partially relieved lung pathology
SARS-CoV-2 [10]; oral CBS 300 mg/kg or NAC 370 mg/kg, 2 dpi
  pulmonary viral load compared with vehicle group: No statistically significant difference

## CC(C)(S)[C@@H](N)C(=O)O [PCM, penicillamine]
[5]
  effect of the thiol-containing drug on hydrolysis of CBS: prevent hydrolysis of CBS

## CC[PH](CC)(CC)[Au][S][C@@H]1O[C@H](COC(C)=O)[C@@H](OC(C)=O)[C@H](OC(C)=O)[C@H]1OC(C)=O [Ridaura, Auranofin]
VeroE6 cells; [14]
  CC50: 14.2 ± 1.3 µM

## O=C(O)c1ccccc1S [TSA, thiosalicylic acid]
[5]
  effect of the thiol-containing drug on hydrolysis of CBS: prevent hydrolysis of CBS

## Bi(TPP) (TPP: tetraphenylporphyrinate)
VeroE6 cells
  CC50: > 400 µM
Caco2 cells
  CC50: > 400 µM
SARS-CoV-2 [11]; SARS-CoV-2 plaque reduction, concentration based on metal content
  EC50: 3.9 ± 1.2 µM
SARS-CoV-2 [6]; [15]
  maximal viral load reduction in VeroE6 cell culture supernatant: ~3 logs
  maximal viral load reduction in the VeroE6 cell lysate: ~1 logs
SARS-CoV-2 [12]; MOI=2, viral titer at 9 hpi
  effect on virus replication, drug maintained after virus entry (post-entry): functioned at post-entry stages
SARS-CoV-2 [13]
  maximal viral load reduction in Caco2 cell culture supernatant: ~3 logs
  maximal viral load reduction in the Caco2 cell lysate: ~2 logs

## Bi(TPyP) (TPyP: tetra(4-pyridyl)porphyrin)
SARS-CoV-2 [11]
  EC50: 7.5 µM
SARS-CoV-2 [6]
  maximal viral load reduction in VeroE6 cell culture supernatant: ~3 logs
  maximal viral load reduction in the VeroE6 cell lysate: ~1 logs
SARS-CoV-2 [12]
  effect on virus replication, drug added during pre-incubation (cells pre-treatment): significantly suppressed virus replication
  effect on virus replication, drug added during virus co-infection: significantly suppressed virus replication
  effect on virus replication, drug maintained after virus entry (post-entry): no detectable effect
pseudo-SARS-CoV-2-Luc
  percent virus entry lowered: ~53%

## bismuth subgallate [BSG]
[5]; low pH
  stabilisation of the bismuth drug by NAC: stabilized
